# Molecular target: Protein cereblon (Homo sapiens, UniProt Q96SW2)
# Test: HTRF assay
# Description: Biochemical assays were conducted in Greiner white 384 well HiBase plates (Cat. No 784075-25) in 10 μL total volume. A one pot detection solution of CRBN-DDB1 (2.5 nM), Anti-His Terbium Cryptate Gold (1×, PerkinElmer Cat. #: 61HI2TLB), and Cy5-Thalidomide (100 nM, Tenova Cat.: T52461) was prepared in 20 mM HEPES, 20 mM NaCl, 0.2 mM TCEP, 0.2 mM EDTA, and 0.005% Tween20 was dispensed to each assay plate. Compounds were stored in dry, ambient temperatures at 10 mM. A 10-point, 1:3 dilution series was prepared from 10 mM stock concentrations in Echo-compatible LDV plates. 10 nL of each compound dilution series was dispensed into assays wells using an Echo 650 (Labcyte inc. USA). 10 nL of 10 mM Lenalidomide was transferred into the active-control wells for the assay and 10 nL of DMSO was transferred into the neutral-control wells. The assay was then allowed to incubate for 30 min at ambient temperature after transferring compound. Plate measurements were taken on a Pherastar FSX (BMG Labtech, Germany) using the HTRF Red filter (Ex. 337 nm, em1: 620 nm, em2: 665 nm) (Flashes: 50, Integration time: 60-400 us, Z-height: 10 mm, Ratio-multiplier: 10,000).
# Sequence of Protein cereblon (Q96SW2 whole entry): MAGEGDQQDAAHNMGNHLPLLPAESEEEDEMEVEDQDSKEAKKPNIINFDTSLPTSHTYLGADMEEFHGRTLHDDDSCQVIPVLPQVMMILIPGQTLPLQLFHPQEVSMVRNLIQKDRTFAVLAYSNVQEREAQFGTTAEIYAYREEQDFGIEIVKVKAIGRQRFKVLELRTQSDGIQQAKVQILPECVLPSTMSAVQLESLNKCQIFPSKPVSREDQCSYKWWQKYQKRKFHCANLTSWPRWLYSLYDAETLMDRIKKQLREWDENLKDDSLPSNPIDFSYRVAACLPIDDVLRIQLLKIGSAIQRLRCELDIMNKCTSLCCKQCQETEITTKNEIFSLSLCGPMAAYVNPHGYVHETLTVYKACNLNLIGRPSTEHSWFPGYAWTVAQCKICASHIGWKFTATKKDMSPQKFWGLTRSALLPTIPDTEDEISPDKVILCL
row,Ki,Structure (SMILES)
1,< 0.1 µM,"O=C1CCC(c2c(F)cc(N3CC(NC(=O)OCC4CC5(CCC5)C4)C3)cc2F)C(=O)N1 (stereo not given) [US20250263395, Compound 1]"
2,< 0.1 µM,"Cc1ccnc(N2CC(OC(=O)NC3CN(c4cc(F)c(C5CCC(=O)NC5=O)c(F)c4)C3)C2)c1 (stereo not given) [US20250263395, Compound 6]"
3,< 0.1 µM,"Cc1cccc(N(C)C(=O)N2CC(OC(=O)NC3CN(c4cc(F)c(C5CCC(=O)NC5=O)c(F)c4)C3)C2)c1 (stereo not given) [US20250263395, Compound 10]"

# Further lines, the compound ahead of its results:
row,Structure (SMILES),Ki
1,"O=C1CCC(c2c(F)cc(N3CC(NC(=O)OC4CN(C(=O)N5CCCC5)C4)C3)cc2F)C(=O)N1 (stereo not given) [US20250263395, Compound 32]",< 0.1 µM
2,"Cc1ccc(C)c(N(C)C(=O)C23CC(OC(=O)NC4CN(c5cc(F)c(C6CCC(=O)NC6=O)c(F)c5)C4)(C2)C3)c1 (stereo not given) [US20250263395, Compound 111]",< 0.1 µM
